Laboratory results taken from patent US8912230B2, “Method for treating cell degeneration using at least one molecule capable of inhibiting adhesion molecule expression and vascular endothelium actin fibre polymerization” (Aisa Therapeutics, priority 2004, dated 2014).

Tests used:
rats = settings: rat, in vivo; cited from earlier work
C57/BL6 mice = assay: Preliminary in vivo toxicity study, blood cell count (Cell Dyn 3500/3700); parameters: species or system mouse
Protocol: FIGS. 11-25 depict the in vivo toxicity study for the natural and synthetic forms (respectively “NAT” and “SYN”) of geranyl acetate—a molecule called “AISA 5201” and selected for its representativeness of the AISA class—in a mouse model, for blood cell count parameters, at concentrations of 5, 10, 25, and 50 μg/mouse which correspond to non-toxic in vitro concentrations, allowing the desired biological effect to be observed, i.e. the inhibition of endothelial adhesion and endothelial actin polymerisation.
Two methods were used, one with the synthetic form named herein “SYN” (SIGMA catalogue number 173495), and the other with the natural unfiltered form (derived from geranium essential oils treated by HPLC) named herein “NAT”, of said molecule.
On the basis of the in vitro toxicity experiments, the “SYN” and “NAT” molecules were first tested on C57/BL6 mice at concentrations of 10, 25, and 50 μg/mouse, as well as on a control batch which was injected with PBS, either via the IP (intraperitoneal) or retro-orbital (IV) routes. Each batch consisted of 4 animals. A total of 16 animals was used.
Following the experiment, a blood cell count was performed using the Cell Dyn Systems 3500/3700 machine from Abbott Laboratories. This test was carried out to reveal any possible functional alterations. […]

SMILES	LD50 (rats)	most appropriate concentration (WBC, NEU, LYM, MONO and PLT values closest to control) (C57/BL6 mice; first experiment, 10, 25, 50 μg/mouse tested) [μg/mouse]	blood cell count (C57/BL6 mice; mouse, in vivo)
CC(=O)OC/C=C(\C)CCC=C(C)C [AISA 5201, (E)-3,7-dimethyl-2,6-octadienyl acetate]	6,330 mg/kg		
CC(=O)OC/C=C(\C)CCC=C(C)C [NAT, geranyl acetate]		50	remaining within the values of the standard range
